According to ChEMBL document CHEMBL3508140 (2016):

What was measured:
[1] = (§1) Urinary elimination of 4'-epiadriamycin following intravenous bolus 4'-epiadriamycin at 10 mg.Kg-1 dose in rat; type: ADME, organism-based; conditions: SD, urine, read-out: Compound recovery
[2] = Recovery of epirubicin following intraperitoneal epirubicin at 4 mg.Kg-1 dose in mouse; type: ADME, organism-based, CD-1, Plasma; conditions: in vivo, ip
[3] = (§2) Terminal half-life of epirubicinol following intravenous epirubicin at 1 mg.Kg-1 dose in rabbit; type: ADME, organism-based, Oryctolagus cuniculus, New Zealand White, Plasma; conditions: in vivo
[4] = Intermediate phase half-life of epirubicin following intravenous epirubicin at 75 mg.m-2 dose in cancer patients; type: ADME, organism-based, Plasma; conditions: human, in vivo
[5] = Cumulative urinary excretion of epirubicin and its metabolites following epirubicin at 75-90 mg.m-2 dose in cancer patients; type: ADME, organism-based, Urine; conditions: human, in vivo
[6] = Half-life of terminal elimination phase of epirubicin following intravenous epirubicin at 20 mg.m-2 dose in cancer patients; type: ADME, organism-based; conditions: human, plasma
[7] = Plasma clearance of epirubicin following intrahepatic epirubicin emulsion at 1 mg.Kg-1 dose in rabbit; type: ADME, organism-based, Oryctolagus cuniculus, Blood; conditions: both, New Zealand White
[8] = Renal clearance of epirubicin following epirubicin at 60 mg.m-2 dose in cancer patients; type: ADME, organism-based, Kidney; conditions: human, in vivo, iv, read-out: Renal clearance (converted)
[9] = Recovery of epirubicin following intraperitoneal epirubicin at 4 mg.Kg-1 dose in hamster; type: ADME, organism-based, Cricetulus griseus, Plasma; conditions: chinese hamster, in vivo, ip
[10] = Mean plasma clearance of epirubicin following intravenous epirubicin at 150 mg.m-2 dose in advanced cancer patients; type: ADME, organism-based; conditions: human, read-out: CLp (converted)
[11] = Volume of distribution as steady state of epirubicin following intravenous epirubicin at 30-90 mg.m-2 dose in cancer patients; type: ADME, organism-based, Plasma; conditions: human, in vivo
[12] = Terminal half-life of epirubicin following intravenous epirubicin solution at 1 mg.Kg-1 dose in rabbit; type: ADME, organism-based, Oryctolagus cuniculus; conditions: both, New Zealand White, blood
[13] = Plasma clearance of epirubicin following intravenous epirubicin at 60-90 mg.m-2 dose in cancer patients; type: ADME, organism-based; conditions: human, in vivo
[14] = Terminal half-life of epirubicin following intrahepatic epirubicin emulsion at 1 mg.Kg-1 dose in rabbit; type: ADME, organism-based, Oryctolagus cuniculus; conditions: both, New Zealand White, blood
Albumin = Albumin (Homo sapiens, UniProt P02768); assay: Binding of epirubicin to albumin; type: cell-free; conditions: read-out: Plasma protein binding (converted)
Albumin, sequence (P02768 whole entry): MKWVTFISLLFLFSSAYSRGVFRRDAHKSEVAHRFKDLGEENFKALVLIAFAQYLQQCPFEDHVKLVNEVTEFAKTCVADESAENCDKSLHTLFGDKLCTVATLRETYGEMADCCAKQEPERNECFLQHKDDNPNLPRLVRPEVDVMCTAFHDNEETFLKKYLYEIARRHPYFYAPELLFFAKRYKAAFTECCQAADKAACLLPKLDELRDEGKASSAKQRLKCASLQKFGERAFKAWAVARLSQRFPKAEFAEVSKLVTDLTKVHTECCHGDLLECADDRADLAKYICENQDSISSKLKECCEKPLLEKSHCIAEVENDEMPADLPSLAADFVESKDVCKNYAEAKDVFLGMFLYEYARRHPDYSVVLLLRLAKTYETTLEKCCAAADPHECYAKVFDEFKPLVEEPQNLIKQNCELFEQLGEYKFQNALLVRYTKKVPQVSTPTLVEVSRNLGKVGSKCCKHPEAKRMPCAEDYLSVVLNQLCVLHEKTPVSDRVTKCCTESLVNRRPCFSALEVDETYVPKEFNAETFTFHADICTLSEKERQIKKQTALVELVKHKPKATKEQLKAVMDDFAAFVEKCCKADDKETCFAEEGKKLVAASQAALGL

[15] = Plasma clearance of epirubicin following intravenous epirubicin at 40-135 mg.m-2 dose in cancer patients; type: ADME, organism-based; conditions: human, in vivo
[16] = Recovery of epirubicin following intravenous epirubicin at 4 mg.Kg-1 dose in rat; type: ADME, organism-based, SD, Plasma; conditions: in vivo
[17] = Plasma clearance of epirubicin following intravenous epirubicin solution at 1 mg.Kg-1 dose in rabbit; type: ADME, organism-based, Oryctolagus cuniculus, Blood; conditions: both, New Zealand White
[18] = as §1; type: ADME, organism-based; conditions: SD, urine, read-out: Compound recovery; remark: listed apart in the source
[19] = Intermediate phase half-life of epirubicin following intravenous epirubicin at 20 mg.m-2 dose in cancer patients; type: ADME, organism-based, Plasma; conditions: human, in vivo
[20] = Terminal elimination of metabolite of epirubicin following intravenous epirubicin at 25-35 mg.m-2 dose in cancer patients; type: ADME, organism-based, Plasma; conditions: human, in vivo
[21] = Urinary excretion of epirubicin following epirubicin at 50 mg.m-2 dose in cancer patients; type: ADME, organism-based; conditions: human, urine, at 50 mg/m2, read-out: Compound recovery
[22] = Terminal half-life of epirubicin following intravenous epirubicin at 1 mg.Kg-1 dose in rabbit; type: ADME, organism-based, Oryctolagus cuniculus; conditions: both, New Zealand White, plasma
[23] = Terminal half-life of epirubicin following intravenous epirubicin at 3 mg.Kg-1 dose in rabbit; type: ADME, organism-based, Oryctolagus cuniculus; conditions: both, New Zealand White, plasma
[24] = Half-life of epirubicin in tumor following single intravenous epirubicin at 10 mg.Kg-1 dose in female mouse bearing colon tumor; type: ADME, organism-based, Neoplasm; conditions: BALB/c
[25] = Half-life of terminal elimination phase of epirubicin following intravenous epirubicin at 75-90 mg.m-2 dose in cancer patients; type: ADME, organism-based; conditions: human, plasma
[26] = AUC of epirubicin following intravenous epirubicin at 1 mg.Kg-1 dose in rabbit; type: ADME, organism-based, Oryctolagus cuniculus; conditions: both, New Zealand White, plasma
[27] = Volume of distribution of 4'-epiadriamycin intravenous 4'-epiadriamycin at 1.27 mg.Kg-1 dose in dog; type: ADME, organism-based, Canis lupus familiaris; conditions: Beagle, plasma
[28] = Terminal half-life of 4'-epiadriamycin following intravenous 4'-epiadriamycin at 1.27 mg.Kg-1 dose in dog; type: ADME, organism-based, Canis lupus familiaris; conditions: Beagle, plasma
[29] = Plasma clearance of 4'-epiadriamycin following intravenous 4'-epiadriamycin at 1.27 mg.Kg-1 dose in dog; type: ADME, organism-based, Canis lupus familiaris; conditions: Beagle, read-out: Clp
[30] = Intermediate phase half-life of epirubicin following intravenous epirubicin at 70 mg.m-2 dose in cancer patients; type: ADME, organism-based, Plasma; conditions: human, in vivo
[31] = Half-life of terminal elimination phase of epirubicin following intravenous epirubicin at 30-90 mg.m-2 dose in cancer patients; type: ADME, organism-based; conditions: human, plasma
[32] = Plasma clearance of epirubicin following intravenous epirubicin at 90-150 mg.m-2 dose in cancer patients; type: ADME, organism-based; conditions: human, in vivo
[33] = AUC of epirubicin following intrahepatic epirubicin emulsion at 1 mg.Kg-1 dose in rabbit; type: ADME, organism-based, Oryctolagus cuniculus; conditions: both, New Zealand White, blood
[34] = Half-life of terminal elimination phase of epirubicin following intravenous epirubicin at 60-90 mg.m-2 dose in cancer patients; type: ADME, organism-based; conditions: human, plasma
[35] = Half-life of terminal elimination phase of epirubicin following intravenous epirubicin at 40-135 mg.m-2 dose in cancer patients; type: ADME, organism-based; conditions: human, plasma
[36] = Initial phase half-life of epirubicin following intravenous epirubicin at 75 mg.m-2 dose in cancer patients; type: ADME, organism-based, Plasma; conditions: human, in vivo
[37] = Detection of epirubicin in tumor following single intravenous epirubicin at 10 mg.Kg-1 dose in female mouse bearing colon tumor; type: ADME, organism-based, BALB/c, Neoplasm; conditions: in vivo
[38] = Urinary excretion of epirubicin following epirubicin at 60 mg.m-2 dose in cancer patients; type: ADME, organism-based; conditions: human, urine, at 60 mg/m2, read-out: Compound recovery
[39] = as §2; type: ADME, organism-based, Oryctolagus cuniculus, New Zealand White, Plasma; conditions: in vivo; remark: listed apart in the source
[40] = Terminal elimination of metabolite of epirubicin following intravenous epirubicin at 40-60 mg.m-2 dose in cancer patients; type: ADME, organism-based, Plasma; conditions: human, in vivo
[41] = Volume of distribution of epirubicin following intravenous epirubicin emulsion at 1 mg.Kg-1 dose in rabbit; type: ADME, organism-based, Oryctolagus cuniculus; conditions: both, New Zealand White, blood
[42] = Half-life of epirubicin in heart following single intravenous epirubicin at 10 mg.Kg-1 dose in female mouse bearing colon tumor; type: ADME, organism-based; conditions: BALB/c
[43] = Decrease in albumin due to persistent proteinuria following reference intravenous epirubicin at 1 mg.Kg-1 per week in rat; type: toxicity, organism-based, SD, Serum; conditions: in vivo
[44] = Volume of distribution as steady state of epirubicin following intravenous epirubicin at 60-90 mg.m-2 dose in cancer patients; type: ADME, organism-based, Plasma; conditions: human, in vivo
[45] = Mean residence time (MRT) of epirubicin following intravenous epirubicin emulsion at 1 mg.Kg-1 dose in rabbit; type: ADME, organism-based, Oryctolagus cuniculus; conditions: both, New Zealand White, blood, read-out: Mean residence time (converted)
[46] = Initial phase half-life of epirubicin following intravenous epirubicin at 60 mg.m-2 dose in cancer patients; type: ADME, organism-based, Plasma; conditions: human, in vivo
[47] = Volume of distribution as steady state of epirubicin following intravenous epirubicin at 70 mg.m-2 dose in cancer patients; type: ADME, organism-based, Plasma; conditions: human, in vivo
[48] = Initial phase half-life of epirubicin following intravenous epirubicin at 20 mg.m-2 dose in cancer patients; type: ADME, organism-based, Plasma; conditions: human, in vivo
[49] = Initial phase half-life of epirubicin following intravenous epirubicin at 90-150 mg.m-2 dose in cancer patients; type: ADME, organism-based, Plasma; conditions: human, in vivo
[50] = Volume of distribution of epirubicin following intrahepatic epirubicin emulsion at 1 mg.Kg-1 dose in rabbit; type: ADME, organism-based, Oryctolagus cuniculus; conditions: both, New Zealand White, blood

COc1cccc2c1C(=O)c1c(O)c3c(c(O)c1C2=O)C[C@@](O)(C(=O)CO)C[C@@H]3O[C@H]1C[C@H](N)[C@@H](O)[C@H](C)O1.Cl [EPIRUBICIN HYDROCHLORIDE]
dose excreted [1]: 4.83%
Compound recovery [2]: 49 10^-9M
t1/2 [3]: 0.63 h
t1/2 [4]: 1.7 h
Radiolabel recovery [5]: 10.7%
half-life [6]: 13.9 h
CL/F [7]: 3780 mL/min
CL renal [8]: 71.7 mL/min
Compound recovery [9]: 83 10^-9M
clearance [10]: 1130 mL/min
Vss [11]: 1858 L.m-2
half-life [12]: 1.06 h
CLp [13]: 30.5 L.h-1.m-2
half-life [14]: 0.868 h
fraction unbound (Albumin): 0.43
CLp [15]: 50.9 L.h-1.m-2
Compound recovery [16]: 56 10^-9M
clearance [17]: 813 mL/min
dose excreted [18]: 2.43%
t1/2 [19]: 0.89 h
t1/2 [20]: 21.1 h
dose excreted at 48 h [21]: 6.2%
dose excreted at 96 h [21]: 9.6%
half-life [22]: 22.9 h
half-life [23]: 21.3 h
half-life [24]: 24.7 h
half-life [25]: 38 h
AUC [26]: 420 ng·h/mL
Vd [27]: 71.9 L/kg
half-life [28]: 7.1 min
clearance [29]: 589 mL/min
t1/2 [30]: 1.25 h
half-life [31]: 39.4 h
CLp [32]: 48 L.h-1.m-2
AUC [33]: 36.4 ng·h/mL
half-life [34]: 40 h
half-life [35]: 20.6 h
t1/2 [36]: 5.4 min
Compound recovery [37]: OUTCOME = Observed
dose excreted at 168 h [38]: 6.4%
t1/2 [39]: 13.97 h
t1/2 [40]: 31.5 h
Vd [41]: 18.8 L/kg
half-life [42]: 10.6 h
ALB_CHANGE [43]: OUTCOME = Decreased
Vss [44]: 1844 L.m-2
MRT [45]: 0.835 h
t1/2 [46]: 2.92 min
Vss [47]: 2332 L.m-2
t1/2 [48]: 3.4 min
t1/2 [49]: 0.167 h
Vd [50]: 137 L/kg
